Measurements: US10251865B2, “Method of activating regulatory T cells with alpha-2B adrenergic receptor agonists” (Allergan, Inc., priority 2010, dated 2019)

Assays:
[1] = test system: SNL Rat Model of Allodynic Neuropathic Pain; assay: Allodynia reversal (Von Frey) in the SNL Rat Model of Allodynic Neuropathic Pain; type: in vivo; details: for % Allodynia Reversal 24 hr post / % Allodynia Reversal 7 day post / % Allodynia Reversal 23 day post: SNL rats; for blockade of the (long-term) analgesic effect by the immunosuppressant FK506: spinal nerve ligation model, result in words
Method: The SNL (or Chung) Model in the rat is an accepted standard animal model of neuropathic pain and is thought to mimic the human causalgia condition with respect to symptoms (guarding behavior, mechanical allodynia) and alleviation by pharmacological agents. […] The SNL Model is performed by tightly ligating the L-5 and L-6 spinal nerves, which produces tactile allodynia or sensitivity to light touch as described (Kim and Chung, 1992). Male sprague-dawley rats (100-120 grams; Charles River, Wilmington, Mass.) were anesthetized through inhalation of an isoflurane/oxygen mix. The surgical site was shaved and prepared with betadine. An incision was made from the thoracic vertebra XIII toward down the sacrum. The muscle was separated from the spinal vertebra (left side) at the L4-S2 levels. The L6 vertebra was located and then the transverse process was carefully removed with a small rongeur to visually identify the L4-L6 spinal nerves. The L5 and L6 spinal nerves was isolated and tightly ligated with 6-0 silk thread. A complete homeostasis was confirmed and then the wound was sutured. The duration of the surgery was approximately 20 minutes. A small amount of antibiotic ointment was applied to the incised area and the animals were transferred to a plastic recovery cage under a regulated heat-temperature lamp. Animals were not given any topical or local anesthetics post-operatively because they will inhibit the development of the pain syndrome, which is the phenomenon to be studied.
The allodynia is quantitated in the animals having received the Chung surgery by stimulation with a series of 8 Von Frey hairs on the mid planter area of the surgical hind paw in the up-down manner as described in the literature (Dixon, 1980). Von Frey hairs are applied in an up-down manner depending on the response until the 50% threshold is established. The Von Frey hairs are applied to the plantar surface of the surgical paw with just enough force to bend them. A positive response is recorded if the paw is sharply withdrawn. Eight Von Frey hairs were used 3.61, 3.84, 4.08, 4.31, 4.56, 4.74, 4.93 and 5.18 yielding a gram force of 0.25-15 grams.
[formula] • Mean±SEM: • Mean=average of allodynia reversals • SEM=STDEV/SQ ROOT of n
Testing with compounds is done 2-3 weeks after surgery to establish stable allodynia. In all experimental animals, baseline measurements were taken prior to drug administration and then at 24 hours and 5-23 days post dosing with Alzet osmotic minipump. The investigator was blinded to the identity of the drug groups. The % allodynia reversal is calculated as: [(Postdrug threshold−Predrug threshold)/(15-Predrug threshold)]×100.
Compound B was formulated in 50% DMSO (dimethyl sulfoxide; Sigma, St. Louis, Mo.). This solution was dosed orally TID at a dose of 0.3 or 1 mg/kg. For dosing in the osmotic minipumps (Model 1007D, Alzet Corp., Palo Alto, Calif.) the compound was loaded onto the pumps set to deliver a final dose of either 1 or 3 mg/kg/day. The vehicle for these studies is 50% DMSO.
Compound C was formulated first in 100% DMSO (Sigma, St. Louis, Mo.), then diluted down in 30% DMSO for a 10 mg/ml solution; 15% DMSO for a 3 mg/ml solution and further dilutions were made in water. The compound was dosed orally TID at a dose of either 0.3 or 1 mg/kg for a total daily dose of 1 or 3 mg/kg/day, respectively.

EAAU rats = assay: Experimental autoimmune anterior uveitis (EAAU) in rats; type: in vivo, rat
Method: Male Lewis rats (180-200 g) were immunized by a single left hind-footpad injection with 150, μg (in 100 μL) of purified MAA complex from bovine eye. MAA proteins were suspended in phosphate-buffered saline (PBS, pH7.2) and emulsified (1:1 v/v) in complete Freund's adjuvant (CFA, VWR Scientific) containing 1 μg/100 μl of Pertussis Toxin (PTx) emulsion mixture. Control animals were injected with PBS emulsified with CFA and PTx.
Assessment of intraocular inflammation was conducted starting day 7 after immunization, Animals were examined every other day between day 7 and 19 post-immunization for clinical signs and symptoms of uveitis using slit lamp microscopy. Aqueous humor was collected to evaluate the number of inflammatory cells and protein levels. Cell counts were done with 10 ul with a hemocytometer under the light microscope. Protein concentration was measured with a Protein assay solution from Bio-Rad, using BSA as the protein standard. Pro-inflammatory cytokine and chemokine levels were measured on Luminex (Biosource-Invitrogen, Carlsbad, Calif.). Blood, spleen, and eyes were harvested on days 11, 14, and 19 to determine blood leukocyte differentiation, splenic T cell activation status via Flow cytometry, as well as histopathology.

EIU rats = assay: Endotoxin-induced uveitis (EIU) in rats; type: in vivo, rat
Method: Female Lewis rats (180-200 grams) were purchased from Charles River Laboratory. Rats were footpad-injected (hind left side) with either 100 μl of 1 mg/ml LPS (Sigma) solution (in sterile pyrogen-free saline) or 150 μl of sterile pyrogen-free saline. Animals were sacrificed at 24 hours following LPS injection. Aqueous humor was collected and analyzed to determine inflammatory cell counts, levels of cytokines and chemokine concentration as well as total protein concentrations. Blood leukocyte differentiation and histopathology were also determined if required.

[2] = 1 mg/kg/day osmotic minipump for 7 days + 3 mg/kg FK506 BID SC for 5 days
[3] = 1 mg/kg/day osmotic minipump, treatment for 7 days
[4] = 1 mg/kg/day TID oral for 5 days + 3 mg/kg FK506 BID SC for 5 days, mean % MPE ± SEM
[5] = 1 mg/kg/day TID oral for 5 days, mean % MPE ± SEM

Structure (SMILES) | % Allodynia Reversal 24 hr post [1, 2] [%] | % Allodynia Reversal 7 day post [1, 2] [%] | % Allodynia Reversal 24 hr post [1, 3] [%] | % Allodynia Reversal 7 day post [1, 3] [%] | blockade of the (long-term) analgesic effect by the immunosuppressant FK506 [1] | anterior inflammation (EAAU rats; 1 mg/kg/day from days 1-18 or days 7-18 following EAAU induction (3 days oral TID then osmotic minipump)) | CD4+ T cell population in the spleen (EAAU rats; EAAU rats) | lymphocyte populations in the blood (EAAU rats; EAAU rats) | neutrophil cell counts in the blood (EAAU rats; EAAU rats) | clinical scores of anterior uveitis (EAAU rats; EAAU rats, FIG. 8) | inflammatory cell numbers in the aqueous humor (EAAU rats; EAAU rats, FIG. 8) | protein exudation in the aqueous humor (EIU rats; 1 mg/kg/day by osmotic minipump, vs untreated or vehicle-treated (saline) controls, FIG. 9) | decrease on blood lymphocyte populations as a result of LPS stimulation (EIU rats; FIG. 10) | increase in blood neutrophils as a result of LPS stimulation (EIU rats; FIG. 10) | % Allodynia Reversal 24 hr post [1, 4] [%] | % Allodynia Reversal 23 day post [1, 4] [%] | % Allodynia Reversal 24 hr post [1, 5] [%] | % Allodynia Reversal 23 day post [1, 5] [%]
CCC1=CC(Cc2c[nH]cn2)CCC1 (stereo not shown) [Compound B] | 57.06 ± 14.52 | 16.43 ± 19.42 | 78.50 ± 7.85 | 73.35 ± 11.95 | blockable | effective in partially abrogating | normalized | normalized | decreased | decreased | decreased | significantly inhibited | significantly normalized | significantly normalized |  |  |  | 
Clc1cccc(CNC2=NCCN2)c1Cl [Compound C] |  |  |  |  | able to block |  |  |  |  |  |  |  |  |  | 49 ± 13.15 | 21.82 ± 4.26 | 66.06 ± 10.71 | 81.48 ± 6.00
